Reference: US11491168B2, “Combination of Bcl-2/Bcl-xL inhibitors and chemotherapeutic agent and use thereof” (ASCENTAGE PHARMA (SUZHOU) CO., LTD., priority 2019, dated 2022)
Read-outs that look alike come from different tables or passages of the source.

Assays:
[1] = test system: small cell lung cancer cell line NCI-H146, NCI-H69 and NCI-H446; experiment: Cell Titer-Glo luminescent cell viability assay (CTG); assay type: cell-based, human; settings: small cell lung cancer cells
Experimental: Cells in the logarithmic growth phase were collected for Cell Titer-Glo® (CTG) luminescence cell viability assay. 10 μL of the diluted drug solution was added into a 96-well plate while 10 μL of the medium was added into the 96-well control plate. For the study of the combination, 5 μL of the indicated test reagent was added to each well. At the end of the study, the 96-well plates were equilibrated to room temperature, and then 30 μL of CTG reagent (protected from light) was added to each well to induce cell lysis. The luminescent signal was then detected using a Biotek Synergy H1 plate reader. Percent cell viability (%) was calculated using the mean luminescence value (LN) of the replicate wells (blank) of the control group, according to the following formula: percent cell viability (%)=(fluorescence signal value of experimental cells−fluorescence signal value of negative control cell)/(fluorescence signal value of control cells−fluorescence signal value of negative control cells)×100%.
Cell viability curve was plotted using Graphpad Prism 6.0 software (Golden software, Golden, Colo., USA). For the study of the drug combination, the Combination Index (CI) was calculated using CalcuSyn software (BIOSOFT, UK) to further analyze the combined effects of the indicated drugs (Chou, Cancer Research 70, 440-446). […]

AGS cells = experiment: AnnexinV/PI staining apoptosis, AGS; assay type: cell-based; settings: 48 hours, Compound 31 0.3 μM, 5-FU 3 μM
Experimental: (§1) The inventors chose to combine Compound 31 with one of the most common chemotherapeutic drugs in clinic, 5-fluorouracil (5-FU). In order to investigate the effect and the potential mechanisms of Compound 31 and 5-FU on the growth of gastric cancer cells, the inventors used the AnnexinV/PI staining to detect the apoptosis of two gastric cancer cells, AGS and NCI-N87, 48 hours after the treatment with Compound 31 (0.3 μM), 5-FU (3 μM), and the combination at specified concentrations. […] In NCI-N87 cells, the combination group also achieved a higher apoptosis rate than the mono therapy groups, Compound 31 or 5-FU as a single agent leading to apoptosis rates of 24% or 18% while the combination group reaching an apoptosis rate of 46% (FIG. 29(a)).

NCI-N87 cells [2] = experiment: AnnexinV/PI staining apoptosis, NCI-N87; assay type: cell-based; settings: NCI-N87, 48 hours; Compound 31 0.3 μM, 5-FU 3 μM
Experimental: as §1

[3] = test system: NCI-N87 gastric cancer cell line; experiment: CCK-8 cell viability, NCI-N87; assay type: cell-based; settings: Homo sapiens; NCI-N87, within 72 hours
Text: (§2) Thus, the sensitivity of gastric cancer cells to Compound 31 is closely related to the expression of Bcl-2, Bcl-xL and Bax.

NCI-N87 cells [4] = experiment: CCK-8 anti-proliferation, NCI-N87, Compound 31 with docetaxel; assay type: cell-based; settings: Homo sapiens; NCI-N87, 72 hours, Compound 31 alone
Experimental: Briefly, NCI-N87 cells were seeded in 96-well plates and treated with different Compound 31 at different concentrations for 72 hours. […] Each concentration was prepared in triplicates. At the end of treatment, CCK-8 agents (10 μL/well) were added to the 96-well plate, and incubated with the cells for 2 hours. The OD450 value was measured using a microplate reader.

[5] = test system: AGS gastric cancer cell line; experiment: CCK-8 cell viability, AGS; assay type: cell-based; settings: within 72 hours
Text: as §2

[6] = test system: AGS and NCI-N87 gastric cancer cell lines; experiment: cell cycle assay; assay type: cell-based
[7] = test system: SCLC patient-derived xenograft LU5250; experiment: LU5250 SCLC patient-derived xenograft; assay type: in vivo, female NOD.SCID mice
Experimental: (§3) The therapeutic efficacy of compound 15 alone and its multiple combinations in the treatment of subcutaneous HuPrime® Lung cancer xenograft model LU5250 and LU5188 in female NOD.SCID mice was evaluated.
(§4) Either LU5250 or LU5188 tumor mass with rough size of 3×3×3 mm^3 were inoculated into female NOD.SCID mice and the day of randomization was denoted as day 1. The treatment was initiated on day 1 when tumors approximated a mean volume 136 mm^3 of LU5250 and 155 mm^3 of LU5188, respectively. There were 6 groups enrolled in each model eventually. See Table 3 for the mode of administration and doses. Both models were taken down on day 21.

[8] = test system: subcutaneous NCI-H146 lung cancer xenograft; experiment: NCI-H146 lung cancer xenograft model (Example 8); assay type: in vivo, female SCID mice; settings: for mRECIST_best: best response during the treatment, PR partial response, CR complete response, SD stable disease, PD progressive disease; for mRECIST_last: response on the last day of treatment, PR, CR, SD, PD
Experimental: The therapeutic efficacy of compound 15 alone and in multiple combinations in the treatment of subcutaneous NCI-H146 lung cancer xenograft model was evaluated.
1×10^7 NCI-H146 tumor cells were pre-treated in 0.1 mL of phosphate buffer and Matrigel (7:3) and inoculated into female SCID mice. The day of randomization was denoted as day 1. The treatment was initiated on day 1. The study was conducted in 8 groups of mice. See Table 6 for the mode of administration and doses. The entire study was taken down on day 21. The study was conducted in 40 mice. All the animals were randomized into 8 experimental groups.

Bcl-2 = Bcl-2 (Homo sapiens, UniProt P10415); experiment: binding to Bcl-2 protein
Chain of Bcl-2 (P10415 whole entry): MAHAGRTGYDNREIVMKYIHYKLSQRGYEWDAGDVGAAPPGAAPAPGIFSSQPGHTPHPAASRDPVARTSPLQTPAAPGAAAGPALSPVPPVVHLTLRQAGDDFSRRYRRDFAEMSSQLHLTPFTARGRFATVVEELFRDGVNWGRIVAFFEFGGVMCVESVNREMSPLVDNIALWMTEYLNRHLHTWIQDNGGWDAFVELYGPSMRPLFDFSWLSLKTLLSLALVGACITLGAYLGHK

[9] = activity compared with first generation BCL-2 inhibitor
platelet = platelet toxicity; settings: versus first-generation BCL-2 inhibitors
metastatic solid tumors [10] = experiment: U.S. clinical trial as of Dec. 21, 2019; assay type: in vivo
Experimental: Three clinical trials (Phase I or Phase I/II) with similar study designs were conducted in the United States, Australia, and China. During the dose escalation phase, the patient received Compound 15 (10-400 mg) twice weekly or weekly intravenously for a 28-day treatment cycle. Tumor response assessment was performed every 2 cycles according to RECIST 1.1 criteria. The purpose of the study was to assess safety, maximum tolerated dose (MTD)/recommended phase II dose (RP2D), pharmacokinetics (PK), pharmacodynamics (PD), and the preliminary efficacy of Compound 15 as a single agent in metastatic solid tumors.
As of Dec. 21, 2019, 42 US patients with metastatic solid tumors (Table A) received Compound 15 treatment ranging from 10-400 mg in at least one 28-day cycle. The patients were treated in 2 cohorts. 31 patients in cohort 1 received Compound 15 twice a week (BIW) by intravenous (IV) infusion at a dose of 10 mg, 20 mg, 40 mg, 80 mg, 160 mg, 240 mg, 320 mg, or 400 mg; 11 patients in cohort 2 received Compound 15 once a week (QW) by IV infusion at a dose of 240 mg or 320 mg.

Bcl-xl = Bcl-xl (Homo sapiens, UniProt Q07817); experiment: binding to Bcl-xl protein
Chain of Bcl-xl (Q07817 whole entry): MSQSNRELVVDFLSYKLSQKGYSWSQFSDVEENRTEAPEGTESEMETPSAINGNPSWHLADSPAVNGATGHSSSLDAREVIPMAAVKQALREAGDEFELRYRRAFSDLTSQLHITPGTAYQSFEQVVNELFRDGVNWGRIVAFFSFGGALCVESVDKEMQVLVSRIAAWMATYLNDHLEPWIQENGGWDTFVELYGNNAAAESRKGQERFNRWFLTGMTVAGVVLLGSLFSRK

NCI-N87 xenograft [11] = experiment: NCI-N87 xenograft model, Compound 15 with 5-FU
Mcl-1 = Mcl-1 (Homo sapiens, UniProt Q07820); experiment: binding to Mcl-1
Chain of Mcl-1 (Q07820 whole entry): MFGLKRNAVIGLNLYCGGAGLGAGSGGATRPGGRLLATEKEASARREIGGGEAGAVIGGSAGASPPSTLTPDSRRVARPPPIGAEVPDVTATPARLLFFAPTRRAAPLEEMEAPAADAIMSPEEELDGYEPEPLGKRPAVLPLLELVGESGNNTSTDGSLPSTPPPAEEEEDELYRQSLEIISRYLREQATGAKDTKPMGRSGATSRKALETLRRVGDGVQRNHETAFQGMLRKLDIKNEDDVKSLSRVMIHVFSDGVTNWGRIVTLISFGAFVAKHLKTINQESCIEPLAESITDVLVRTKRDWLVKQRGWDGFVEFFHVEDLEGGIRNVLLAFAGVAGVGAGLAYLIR

[12] = test system: MDA-MB-231 triple-negative breast cancer tumor cell line; experiment: WST (CCK-8) anti-proliferation assay
Experimental: Cell plating: Anti-proliferation effects were detected by a CCK-8 (Cell Counting Kit-8) assay based on water soluble tetrazolium salt (WST).
The cells were seeded in 96-well plates. 95 μL complete medium was added to each negative control group, and 95 μL cell suspension in complete medium was added at a density of 5-10×10^4 cells/well to each well to be tested.
The MGC80-3 and SW620 used in the examples were purchased from the Cell Bank of the Shanghai Institute of Biochemistry and Cell Biology, Chinese Academy of Sciences. MDA-MB-231, PC-3, and NCI-H146 were available from the American Type Culture Collection (ATCC) under accession Nos. HTB-26, CRL-1435, and HTB-173, respectively. It should be noted that the cells used in the present disclosure are all available from ATCC. […]
Reading: At the end of the culture, for adherent cells, the old solution in the test wells was removed and 100 μl/well CCK-8 test solution (the corresponding medium containing 10% CCK-8, 5% FBS) was added. […]
The OD value was measured using a microplate reader (SpectraMax Plus 384, Molecular Devices, LLC., US) A450 nm. […] The percentage of cell viability was calculated by the following formula: (O.D. test well−O.D. blank control well)/(O.D. cell control well−O.D. blank control well)×100%.
The IC50 was calculated using the nonlinear regression data analysis method of Graphpad Prism 6.0 software.

Bcl-w = Bcl-w (Homo sapiens, UniProt Q92843); experiment: binding to Bcl-w protein
Chain of Bcl-w (Q92843 whole entry): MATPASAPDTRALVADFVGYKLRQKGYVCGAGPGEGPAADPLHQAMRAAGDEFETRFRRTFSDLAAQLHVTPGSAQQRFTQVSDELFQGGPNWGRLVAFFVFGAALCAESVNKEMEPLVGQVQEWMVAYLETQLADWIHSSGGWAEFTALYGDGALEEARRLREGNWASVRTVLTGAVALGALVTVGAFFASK

[13] = test system: human PC3 cell line prostate cancer xenograft; experiment: PC3 prostate cancer xenograft model; settings: Compound 15 100 mg/kg; docetaxel 8 mg/kg
Experimental: (§5) Subcutaneous xenograft tumor model of human cancer was established in immunodeficient mouse by cell inoculation: tumor cells in logarithmic growth phase were collected, counted, and then re-suspended in 1×PBS. The concentration of the cell suspension was adjusted to 2.5-5×10^7/mL. Tumor cells were inoculated subcutaneously in the right back of the immunized normal mouse with a 1 mL syringe (4 gauge needle) at 5-10×10^6/0.2 mL/mouse.
(§6) Animal weight and tumor size were measured twice a week during the study. The animals were checked daily for morbility and etc. […] Mortality and clinical signs observed during the study were recorded in the raw data. […]
(§7) Tumor volume (TV) was calculated as: TV=a×b^2/2 wherein a and b represent the measured length and width of tumor, respectively.
(§8) Relative tumor volume (RTV) was calculated as: RTV=Vt/V1 wherein V1 was the tumor volume on the first day of dosing, and Vt was the tumor volume measured on day t after dosing.
(§9) Relative tumor proliferation rate T/C (%), as an indication of anti-tumor effectiveness, was calculated as: Relative tumor proliferation rate T/C (%)=(TRTV/CRTV)×100%, wherein TRTV was RTV in treatment group, and CRTV was RTV in vehicle control group. […]

[14] = test system: SCLC patient-derived xenograft LU5188; experiment: LU5188 SCLC patient-derived xenograft; assay type: in vivo, female NOD.SCID mice
Experimental: as §3, §4

NCI-N87 xenograft [15] = experiment: NCI-N87 xenograft model, Compound 15 single agent; assay type: in vivo, nude mice; settings: for mouse tumor volume upon the end point: tail vein injection, 10 consecutive days
Experimental: The NCI-N87 tumor-bearing mice were treated with different doses of Compound 15 by tail vein injection for 10 consecutive days.
The inventors extracted proteins from the removed tumor tissues and prepared tissue sections.

metastatic solid tumors [16] = experiment: Phase I or I/II clinical trials, pooled results as of Jan. 31, 2019; assay type: in vivo
Experimental: Three clinical trials (Phase I or Phase I/II) with similar study designs were conducted in the United States, Australia, and China. […] Tumor response assessment was performed every 2 cycles according to RECIST 1.1 criteria.

[17] = test system: human SW620 cell line colon cancer xenograft; experiment: SW620 colon cancer xenograft model; assay type: in vivo, mice; settings: single agents: Compound 15 100 mg/kg; irinotecan 50 mg/kg
Experimental: as §5, §6, §7, §8, §9

[18] = mean ± SEM, Compound 15 50 mg/kg i.v. BIW, Irinotecan 10 mg/kg i.p. Q4D, Paclitaxel 10 mg/kg i.v. Q4D

Cc1c(S(C)(=O)=O)c(-c2cc(F)cc(N3CCN(c4ccc(NS(=O)(=O)c5ccc(N[C@H](CCN6CCC(C(=O)O)CC6)CSc6ccccc6)c(S(=O)(=O)C(F)(F)F)c5)cc4)CC3)c2)c(-c2ccc(Cl)cc2)n1C(C)C [Compound 31, (R)-1-(3-(4-(N-(4-(4-(3-(2-(4-chlorophenyl)-1-isopropyl-5-methyl-4-(methylsulfonyl)-1H-pyrrol-3-yl)-5-fluorophenyl)piperazin-1-yl)phenyl)sulfamoyl)-2-(trifluoromethylsulfonyl)phenylamino)-4-(phenylthio)butyl)piperidine-4-carboxylic acid]
inhibition of proliferation as a single agent [1]: can inhibit proliferation of small cell lung cancer cells
apoptosis rate (AGS cells): approximately 22%
apoptosis rate (NCI-N87 cells [2]): 24%
IC50 [3]: 901 ± 230 nM
IC50 (NCI-N87 cells [4]): 405 nM
IC50 [5]: 1150 ± 560 nM
effect on cell cycle [6]: no significant effect on cell cycle

Cc1c(S(C)(=O)=O)c(-c2cc(F)cc(N3CCN(c4ccc(NS(=O)(=O)c5ccc(N[C@H](CCN6CCC(C(=O)OCCP(=O)(O)O)CC6)CSc6ccccc6)c(S(=O)(=O)C(F)(F)F)c5)cc4)CC3)c2)c(-c2ccc(Cl)cc2)n1C(C)C [Compound 15, (R)-2-(1-(3-(4-(N-(4-(4-(3-(2-(4-chlorophenyl)-1-isopropyl-5-methyl-4-(methylsulfonyl)-1H-pyrrol-3-yl)-5-fluorophenyl)piperazin-1-yl)phenyl)sulfamoyl)-2-(trifluoromethylsulfonyl)phenylamino)-4-(phenylthio)butyl)piperidine-4-carbonyloxy)ethylphosphonic acid]
T/C (%) @ day 21 ([7]; doses as Table 3): 136.8%
RTV @day 21 [7, 18]: 9.75 ± 3.77
RTV @day 21 ([8]; Compound 15 20 mg/kg i.v. BIW, Irinotecan 5 mg/kg i.p. QW, Paclitaxel 10 mg/kg i.v. QW, Cisplatin 1 mg/kg i.p. Q4D): 2.0 ± 0.3
mRECIST_best ([8]; progressive disease): 1/5 PD
mRECIST_best ([8]; stable disease): 4/5 SD,
T/C (%) @ day 21 ([8]; doses as Table 6): 70.0%
mRECIST_last ([8]; progressive disease): 4/5 PD
mRECIST_last ([8]; stable disease): 1/5 SD,
IC50 (Bcl-2): 1.6 nM
activity relative to the first generation BCL-2 inhibitor [9]: about 10 times
platelet toxicity reduced (platelet): 10-30 times
patients with partial response (PR) (metastatic solid tumors [10]; 36 patients with post-baseline tumor measurements): 3
MTD/RP2D (metastatic solid tumors [10]; QW): 240 mg
duration of PR (metastatic solid tumors [10]; SCLC patient #002-001, 40 mg BIW): 19 cycles
accumulation (metastatic solid tumors [10]; human, in vivo): No significant accumulation
time to resolution of platelet drop / thrombocytopenia (metastatic solid tumors [10]; human, in vivo): 2 to 6 days
TRAE: alanine aminotransferase increased (metastatic solid tumors [10]; human, in vivo, 28 day): 7.1%
TRAE: aspartate aminotransferase increased (metastatic solid tumors [10]; human, in vivo, 28 day): 9.5%
TRAE: platelet count decreased (metastatic solid tumors [10]; human, in vivo, 28 day): 14.3%
patients with ≥G3 treatment emergent adverse events (TRAEs) (metastatic solid tumors [10]; human, in vivo, 28 day): 26.2%
Cmax and AUC versus dose (metastatic solid tumors [10]; human, in vivo, iv): approximately dose proportional
IC50 (Bcl-xl): 4.4 nM
mouse tumor volume upon the end point (NCI-N87 xenograft [11]; Compound 15 50 mg/kg qd 10 days, 5-FU 25 mg/kg once a week for two weeks): 1600 mm^3
mouse body weight (NCI-N87 xenograft [11]; mouse, in vivo): rebounded after a brief weight loss
binding to Mcl-1 (Mcl-1): binds weakly
IC50 ([12]; Homo sapiens, MDA-MB-231, 72 h, read-out: IC50 (A alone), MDA-MB-231, 72 hours): 2600 nM
IC50 ([12]; read-out: IC50 (A alone), MDA-MB-231, 72 hours): 4550 nM
IC50 (Bcl-w): 9.3 nM
T/C (%) [13]: 84.4%
T/C (%) @ day 21 ([14]; doses as Table 3): 125.4%
RTV @day 21 [14, 18]: 17.05 ± 6.59
mouse tumor volume upon the end point (NCI-N87 xenograft [15]; 25 mg/kg): 700 mm^3
mouse tumor volume upon the end point (NCI-N87 xenograft [15]; 50 mg/kg): 800 mm^3
percentage of Ki67-positive cells (NCI-N87 xenograft [15]; 100 mg/kg group): significantly lower than other groups
mouse tumor volume upon the end point (NCI-N87 xenograft [15]; 100 mg/kg): about 400 mm^3
cleaved-caspase3 and PARP-1 cleavage bands in the tumor tissue (NCI-N87 xenograft [15]; 25, 50, 100 mg/kg): gradually increased as the dose increased
mouse body weight (NCI-N87 xenograft [15]; among the four groups): no significant difference in body weight
weight and size of the xenograft tumors (NCI-N87 xenograft [15]; as the dosing concentration increased): showed an evident trend of reduction
patients with partial remission (PR) (metastatic solid tumors [16]; 19 evaluated SCLC patients, US patient, dose of 40 mg): 1
grade 3/4 AE: decreased lymphocyte count (metastatic solid tumors [16]; 44 patients): 6.8%
grade 3/4 AE: elevated lipase (metastatic solid tumors [16]; 44 patients): 6.8%
grade 3/4 AE: hyponatremia (metastatic solid tumors [16]; 44 patients): 11.4%
tolerability (metastatic solid tumors [16]; 44 patients, 7 dose levels, i.v. twice weekly or weekly): well tolerated at all tested dose levels
cases of stable disease in other tumor types (metastatic solid tumors [16]; Australian studies, e.g. CRC): 5
AUC and Cmax on day 1 versus dose (metastatic solid tumors [16]; dose range of 10-160 mg): increased proportionally with dose
MTD (metastatic solid tumors [16]; pooled analysis): had not been reached
T/C (%) [17]: 60.6%
